Assay results: ChEMBL document CHEMBL1909294, “Translating clinical findings into knowledge in drug safety evaluation--drug induced liver injury prediction system (DILIps)” (PLoS Comput Biol, 2011)

Columns and labels:
[1] = tested on: Hepatotoxicity;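 as to HepSE Combined Scores: combined hepatic side effect score as listed in the training data of the Drug Induced Liver Injury Prediction System (DILIps)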;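 as to HepSE bilirubinemia: bilirubinemia hepatic side effect score drawn from the DILIps training data, a prediction system for drug-induced liver injury; call rule not given here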;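 as to HepSE cholelithiasis: hepatic side effect score for cholelithiasis, drawn from the DILIps training data for predicting drug-induced liver injury; call rule not given here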;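 as to HepSE elevated liver function tests: hepatic side effect score for raised liver function tests, as recorded in the DILIps training set used for predicting drug-induced liver injury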; as to HepSE hepatic failure: call rule not given here;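 as to HepSE jaundice: Jaundice-related hepatic side-effect score drawn from the training data of the DILIps (drug-induced liver injury prediction system); call rule not given here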;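 as to HepSE liver function tests abnormal: hepatic side effect score taken from the DILIps (drug-induced liver injury prediction system) training data, here covering abnormal liver function test findings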
[2] = tested on: Hepatotoxicity; remark: listed apart in the source;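 as to HepSE Combined Scores: combined hepatic side effect score as listed in the training data of the Drug Induced Liver Injury Prediction System (DILIps)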;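 as to HepSE bilirubinemia: bilirubinemia hepatic side effect score drawn from the DILIps training data, a prediction system for drug-induced liver injury; call rule not given here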;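 as to HepSE cholelithiasis: hepatic side effect score for cholelithiasis, drawn from the DILIps training data for predicting drug-induced liver injury; call rule not given here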; as to HepSE hepatic failure: call rule not given here;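 as to HepSE jaundice: Jaundice-related hepatic side-effect score drawn from the training data of the DILIps (drug-induced liver injury prediction system); call rule not given here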;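 as to HepSE liver function tests abnormal: hepatic side effect score taken from the DILIps (drug-induced liver injury prediction system) training data, here covering abnormal liver function test findings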
[3] = tested on: Hepatotoxicity; remark: listed apart in the source;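 as to HepSE Combined Scores: combined hepatic side effect score as listed in the training data of the Drug Induced Liver Injury Prediction System (DILIps)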;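 as to HepSE bilirubinemia: bilirubinemia hepatic side effect score drawn from the DILIps training data, a prediction system for drug-induced liver injury; call rule not given here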;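 as to HepSE cholelithiasis: hepatic side effect score for cholelithiasis, drawn from the DILIps training data for predicting drug-induced liver injury; call rule not given here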; as to HepSE hepatic failure: call rule not given here;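 as to HepSE jaundice: Jaundice-related hepatic side-effect score drawn from the training data of the DILIps (drug-induced liver injury prediction system); call rule not given here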;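 as to HepSE liver function tests abnormal: hepatic side effect score taken from the DILIps (drug-induced liver injury prediction system) training data, here covering abnormal liver function test findings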
[4] = tested on: Hepatotoxicity; remark: listed apart in the source;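 as to HepSE Combined Scores: combined hepatic side effect score as listed in the training data of the Drug Induced Liver Injury Prediction System (DILIps)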;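 as to HepSE bilirubinemia: bilirubinemia hepatic side effect score drawn from the DILIps training data, a prediction system for drug-induced liver injury; call rule not given here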;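 as to HepSE cholelithiasis: hepatic side effect score for cholelithiasis, drawn from the DILIps training data for predicting drug-induced liver injury; call rule not given here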; as to HepSE hepatic failure: call rule not given here;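 as to HepSE jaundice: Jaundice-related hepatic side-effect score drawn from the training data of the DILIps (drug-induced liver injury prediction system); call rule not given here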;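 as to HepSE liver function tests abnormal: hepatic side effect score taken from the DILIps (drug-induced liver injury prediction system) training data, here covering abnormal liver function test findings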
[5] = tested on: Hepatotoxicity; remark: listed apart in the source; as to HepSE hepatic failure: call rule not given here
[6] = tested on: Hepatotoxicity; remark: listed apart in the source; as to HepSE hepatic failure: call rule not given here
[7] = tested on: Hepatotoxicity; remark: listed apart in the source
[8] = tested on: Hepatotoxicity; remark: listed apart in the source
[9] = tested on: Hepatotoxicity; remark: listed apart in the source
[10] = tested on: Hepatotoxicity; remark: listed apart in the source
[11] = tested on: Hepatotoxicity; remark: listed apart in the source
[12] = tested on: Hepatotoxicity; remark: listed apart in the source
[13] = tested on: Hepatotoxicity; remark: listed apart in the source
[14] = tested on: Hepatotoxicity; remark: listed apart in the source

SMILES	HepSE_liver function tests abnormal [1]	HepSE_Combined Scores [2]	HepSE_hepatic failure [3]	HepSE_cholelithiasis [4]	HepSE_jaundice [5]	HepSE_bilirubinemia [6]	HepSE_elevated liver function tests [7]	HepSE_hepatic necrosis [8]	HepSE_hepatitis [9]	HepSE_liver fatty [10]	HepSE_liver disease [11]	HepSE_hepatomegaly [12]	HepSE_cirrhosis [13]	HepSE_cholecystitis [14]	other results
CCCCN1C[C@H](O)[C@@H](O)[C@H](O)[C@H]1CO	0	0	0	0	0	0	0	0	0	0	0	0	0	0	–
OCCN1CCN(CCCN2c3ccccc3Sc3ccc(C(F)(F)F)cc32)CC1 [FLUPHENAZINE]	0	2	0	0	1	0	0	0	1	0	0	0	0	0	–
C[C@H]1C[C@H]2[C@@H]3CCC4=CC(=O)C=C[C@]4(C)[C@@]3(Cl)[C@@H](O)C[C@]2(C)[C@@]1(O)C(=O)CO [BECLOMETHASONE]	0	0	0	0	0	0	0	0	0	0	0	0	0	0	–
[Cl-].[Na+] [SODIUM CHLORIDE]	0	0	0	0	0	0	0	0	0	0	0	0	0	0	–
CNS(=O)(=O)Cc1ccc2[nH]cc(CCN(C)C)c2c1	1	2	0	0	0	0	1	0	0	0	0	0	0	0	–
CNCCC=C1c2ccccc2CCc2ccccc21 [NORTRIPTYLINE]	–	–	–	–	–	–	–	–	–	–	–	–	–	–	HepSE_liver function tests abnormal ([1]; Liver): 0; HepSE_Combined Scores ([2]; Liver): 3; HepSE_hepatic failure ([3]; Liver): 0; HepSE_cholelithiasis ([4]; Liver): 0; HepSE_jaundice ([5]; Liver): 1; HepSE_bilirubinemia ([6]; Liver): 0; HepSE_elevated liver function tests ([7]; Liver): 0; HepSE_hepatic necrosis ([8]; Liver): 1; HepSE_hepatitis ([9]; Liver): 1; HepSE_liver fatty ([10]; Liver): 0; HepSE_liver disease ([11]; Liver): 0; HepSE_hepatomegaly ([12]; Liver): 0; HepSE_cirrhosis ([13]; Liver): 0; HepSE_cholecystitis ([14]; Liver): 0
CC(C)Cn1cnc2c(N)nc3ccccc3c21 [IMIQUIMOD]	0	0	0	0	0	0	0	0	0	0	0	0	0	0	–
CN(CCOc1ccc(NS(C)(=O)=O)cc1)CCc1ccc(NS(C)(=O)=O)cc1 [DOFETILIDE]	0	0	0	0	0	0	0	0	0	0	0	0	0	0	–
c1ccc2c(CC3=NCCN3)cccc2c1 [NAPHAZOLINE]	0	0	0	0	0	0	0	0	0	0	0	0	0	0	–
CCOC(=O)[C@H](CCc1ccccc1)N[C@@H](C)C(=O)N1Cc2ccccc2C[C@H]1C(=O)O	1	3	1	0	0	0	0	0	1	0	0	0	0	0	–
Nc1ccn([C@H]2CC[C@@H](CO)O2)c(=O)n1 [ZALCITABINE]	–	–	–	–	–	–	–	–	–	–	–	–	–	–	HepSE_liver function tests abnormal ([1]; Liver): 0; HepSE_Combined Scores ([2]; Liver): 5; HepSE_hepatic failure ([3]; Liver): 0; HepSE_cholelithiasis ([4]; Liver): 0; HepSE_jaundice ([5]; Liver): 1; HepSE_bilirubinemia ([6]; Liver): 1; HepSE_elevated liver function tests ([7]; Liver): 0; HepSE_hepatic necrosis ([8]; Liver): 0; HepSE_hepatitis ([9]; Liver): 1; HepSE_liver fatty ([10]; Liver): 0; HepSE_liver disease ([11]; Liver): 0; HepSE_hepatomegaly ([12]; Liver): 1; HepSE_cirrhosis ([13]; Liver): 0; HepSE_cholecystitis ([14]; Liver): 1
COCCCOc1ccnc(C[S+]([O-])c2nc3ccccc3[nH]2)c1C (stereo not drawn) [RABEPRAZOLE]	1	7	0	1	1	0	0	0	1	1	0	0	1	1	–
CC1Cc2ccccc2N1NC(=O)c1ccc(Cl)c(S(N)(=O)=O)c1 (stereo not drawn) [INDAPAMIDE]	1	3	0	0	1	0	0	0	1	0	0	0	0	0	–
O=C(O)CCNC(=O)c1ccc(/N=N/c2ccc(O)c(C(=O)O)c2)cc1 [BALSALAZIDE]	0	5	1	0	1	0	1	1	0	0	0	0	1	0	–
CC[C@H]1OC(=O)[C@H](C)[C@@H](O[C@H]2C[C@@](C)(OC)[C@@H](O)[C@H](C)O2)[C@H](C)[C@@H](O[C@@H]2O[C@H](C)C[C@H](N(C)C)[C@H]2O)[C@](C)(OC)C[C@@H](C)C(=O)[C@H](C)[C@@H](O)[C@]1(C)O [CLARITHROMYCIN]	0	4	1	0	1	0	0	0	1	0	0	1	0	0	–
CNCCc1ccccn1 [BETAHISTINE]	0	0	0	0	0	0	0	0	0	0	0	0	0	0	–
CC1(C)NC(=O)N(c2ccc([N+](=O)[O-])c(C(F)(F)F)c2)C1=O [NILUTAMIDE]	–	–	–	–	–	–	–	–	–	–	–	–	–	–	HepSE_liver function tests abnormal ([1]; Liver): 0; HepSE_Combined Scores ([2]; Liver): 1; HepSE_hepatic failure ([3]; Liver): 0; HepSE_cholelithiasis ([4]; Liver): 0; HepSE_jaundice ([5]; Liver): 0; HepSE_bilirubinemia ([6]; Liver): 0; HepSE_elevated liver function tests ([7]; Liver): 0; HepSE_hepatic necrosis ([8]; Liver): 0; HepSE_hepatitis ([9]; Liver): 1; HepSE_liver fatty ([10]; Liver): 0; HepSE_liver disease ([11]; Liver): 0; HepSE_hepatomegaly ([12]; Liver): 0; HepSE_cirrhosis ([13]; Liver): 0; HepSE_cholecystitis ([14]; Liver): 0
